From patent publication US8338465B2, “Cyclic carboxylic acid rhodanine derivatives for the treatment and prevention of tuberculosis” (priority 2006, dated 2012)

Molecular target: T1, dihydrolipoamide acyltransferase (DlaT) (Mycobacterium tuberculosis, UniProt P9WIS7)
T1 sequence (P9WIS7 1-553): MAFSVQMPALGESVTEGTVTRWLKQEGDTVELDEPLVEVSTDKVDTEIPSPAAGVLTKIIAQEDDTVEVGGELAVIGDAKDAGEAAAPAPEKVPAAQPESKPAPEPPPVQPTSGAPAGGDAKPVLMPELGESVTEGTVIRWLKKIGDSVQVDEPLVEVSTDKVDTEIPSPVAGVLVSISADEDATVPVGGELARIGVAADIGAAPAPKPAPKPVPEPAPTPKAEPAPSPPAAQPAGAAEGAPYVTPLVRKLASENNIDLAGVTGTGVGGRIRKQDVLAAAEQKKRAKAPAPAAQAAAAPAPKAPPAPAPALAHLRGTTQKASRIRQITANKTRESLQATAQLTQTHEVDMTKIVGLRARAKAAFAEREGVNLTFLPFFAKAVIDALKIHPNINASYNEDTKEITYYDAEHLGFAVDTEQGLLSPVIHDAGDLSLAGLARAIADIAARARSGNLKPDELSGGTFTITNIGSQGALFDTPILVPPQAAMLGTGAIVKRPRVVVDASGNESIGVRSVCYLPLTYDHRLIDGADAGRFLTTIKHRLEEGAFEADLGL
Assay: DlaT inhibition (Dlat IC50); DTNB peroxidase assay with Lpd, DlaT and AhpD
Assay type: biochemical
Conditions: Dlat IC50 category

Compound	IC50 [µM]
CC(C)(C)c1ccc(-c2ccc(C=C3SC(=S)N(Nc4ccccc4C(=O)O)C3=O)o2)cc1 (single isomer, unassigned) [Compound D2, 2-{5-[1-[5-(4-tert-butyl-phenyl)-furan-2-yl]-meth-(E)-ylidene]-4-oxo-2-thioxo-thiazolidin-3-ylamino}-benzoic acid]	< 10
O=C(O)c1ccccc1NN1C(=O)/C(=C\c2ccc(-c3ccc(N4CCOCC4)cc3)o2)SC1=S (single isomer, unassigned) [Compound D6, 2-{5-[1-[5-(4-morpholin-4-yl-phenyl)-furan-2-yl]-meth-(E)-ylidene]-4-oxo-2-thioxo-thiazolidin-3-ylamino}-benzoic acid]	11 to 40

Same assay, conditions: Table 1, Compounds A1 to A294; read-out: Dlat IC50 category

Compound	IC50 [µM]
O=C(O)c1cccc(N2C(=O)C(=Cc3ccc(-c4cccc(C(F)(F)F)c4)o3)SC2=S)c1 [Compound A2]	< 10
O=C(O)c1cccc(N2C(=O)C(=Cc3ccc(-c4ccc(Cc5ccccc5)cc4)o3)SC2=S)c1 [Compound A3]	< 10
O=C(O)c1cccc(N2C(=O)C(=Cc3ccc(-c4cccc(Cl)c4)o3)SC2=S)c1 [Compound A4]	11 to 40
O=C(O)c1cccc(N2C(=O)C(=Cc3cccc(-c4ccccc4Cl)n3)SC2=S)c1 [Compound A5]	> 41
NS(=O)(=O)c1ccc(N2C(=O)C(=Cc3ccc(-c4ccccc4Cl)o3)SC2=S)cc1 [Compound A6]	11 to 40
O=C(O)c1cccc(N2C(=O)C(=Cc3ccc(-c4ccc(Cl)c(Cl)c4)o3)SC2=S)c1 [Compound A7]	< 10
O=C(O)c1ccc(N2C(=O)C(=Cc3ccc(-c4ccc(Cl)c(Cl)c4)o3)SC2=S)cc1 [Compound A8]	< 10
NS(=O)(=O)c1ccc(N2C(=O)C(=Cc3ccc(-c4ccc(Cl)c(Cl)c4)o3)SC2=S)cc1 [Compound A9]	11 to 40
O=C(O)c1ccc(N2C(=O)C(=Cc3ccc(-c4cccc(C(F)(F)F)c4)o3)SC2=S)cc1 [Compound A10]	11 to 40
O=C(O)c1ccc(N2C(=O)C(=Cc3ccc(-c4ccc(Cc5ccccc5)cc4)o3)SC2=S)cc1 [Compound A11]	11 to 40
NS(=O)(=O)c1ccc(N2C(=O)C(=Cc3ccc(-c4ccc(Cc5ccccc5)cc4)o3)SC2=S)cc1 [Compound A12]	11 to 40
O=C(O)c1cccc(N2C(=O)C(=Cc3ccc(-c4ccc(Oc5ccccc5)cc4)o3)SC2=S)c1 [Compound A13]	< 10
O=C(O)c1ccc(N2C(=O)C(=Cc3ccc(-c4ccc(Oc5ccccc5)cc4)o3)SC2=S)cc1 [Compound A14]	11 to 40
NS(=O)(=O)c1ccc(N2C(=O)C(=Cc3ccc(-c4ccc(Oc5ccccc5)cc4)o3)SC2=S)cc1 [Compound A15]	> 41
O=C(O)c1ccc(N2C(=O)C(=Cc3ccc(-c4ccccc4Cl)o3)SC2=S)cc1 [Compound A16]	> 41
NS(=O)(=O)c1ccc(N2C(=O)C(=Cc3ccc(-c4ccc(Cl)cc4)o3)SC2=S)cc1 [Compound A17]	11 to 40
NS(=O)(=O)c1ccc(N2C(=O)C(=Cc3ccc(-c4cccc(C(F)(F)F)c4)o3)SC2=S)cc1 [Compound A18]	11 to 40
NS(=O)(=O)c1ccc(N2C(=O)C(=Cc3ccc(-c4cccc(Cl)c4)o3)SC2=S)cc1 [Compound A19]	11 to 40
O=C(O)c1ccc(N2C(=O)C(=Cc3ccc(-c4ccc(Cl)cc4)o3)SC2=S)cc1 [Compound A20]	< 10
O=C(O)c1cccc(N2C(=O)C(=Cc3ccc(-c4ccc(Cl)cc4)o3)SC2=S)c1 [Compound A21]	< 10
O=C1C(=Cc2ccc(-c3ccccc3Cl)o2)SC(=S)N1c1ccc(O)cc1 [Compound A22]	< 10

Compound	IC50 [µM]
O=C1C(=Cc2ccc(-c3cccc(C(F)(F)F)c3)o2)SC(=S)N1c1ccc(O)cc1 [Compound A23]	< 10
O=C1C(=Cc2ccc(-c3ccc(Cl)cc3)o2)SC(=S)N1c1ccc(O)cc1 [Compound A24]	< 10
NS(=O)(=O)c1cccc(N2C(=O)C(=Cc3ccc(-c4ccccc4Cl)o3)SC2=S)c1 [Compound A25]	11 to 40
NS(=O)(=O)c1cccc(N2C(=O)C(=Cc3ccc(-c4cccc(C(F)(F)F)c4)o3)SC2=S)c1 [Compound A26]	11 to 40
NS(=O)(=O)c1cccc(N2C(=O)C(=Cc3ccc(-c4ccc(Cl)cc4)o3)SC2=S)c1 [Compound A27]	< 10
O=C(O)c1cccc(N2C(=O)C(=Cc3cc(-c4cccc(C(F)(F)F)c4)co3)SC2=S)c1 [Compound A28]	< 10
O=C(O)c1ccc(N2C(=O)C(=Cc3cc(-c4cccc(C(F)(F)F)c4)co3)SC2=S)cc1 [Compound A29]	11 to 40
CC(=O)NS(=O)(=O)c1ccc(N2C(=O)C(=Cc3ccc(-c4ccc(Cl)c(Cl)c4)o3)SC2=S)cc1 [Compound A30]	< 10
CC(=O)NS(=O)(=O)c1ccc(N2C(=O)C(=Cc3ccc(-c4cccc(C(F)(F)F)c4)o3)SC2=S)cc1 [Compound A31]	< 10
O=C(O)c1cc(N2C(=O)C(=Cc3ccc(-c4cccc(C(F)(F)F)c4)o3)SC2=S)ccc1O [Compound A32]	< 10
O=C(O)c1cc(N2C(=O)C(=Cc3ccc(-c4ccccc4Cl)o3)SC2=S)ccc1O [Compound A33]	< 10
O=C(O)c1cc(N2C(=O)C(=Cc3ccc(-c4ccc(Cl)cc4)o3)SC2=S)ccc1O [Compound A34]	< 10
O=C(O)c1cccc(N2C(=O)C(=Cc3ccc(-c4ccc(Cl)cc4Cl)o3)SC2=S)c1 [Compound A35]	11 to 40
O=C(O)c1cccc(N2C(=O)C(=Cc3ccc(-c4cc(Cl)ccc4Cl)o3)SC2=S)c1 [Compound A36]	< 10
CC(=O)NS(=O)(=O)c1cccc(N2C(=O)C(=Cc3ccc(-c4ccccc4Cl)o3)SC2=S)c1 [Compound A37]	11 to 40
CC(=O)NS(=O)(=O)c1cccc(N2C(=O)C(=Cc3ccc(-c4cccc(C(F)(F)F)c4)o3)SC2=S)c1 [Compound A38]	< 10
O=C(O)c1cccc(N2C(=O)C(=Cc3ccc(-c4c(Cl)cccc4Cl)o3)SC2=S)c1 [Compound A39]	11 to 40
O=C(O)c1cc(N2C(=O)C(=Cc3ccc(-c4ccc(Cl)cc4Cl)o3)SC2=S)ccc1O [Compound A40]	11 to 40
O=C(O)c1cc(N2C(=O)C(=Cc3ccc(-c4cc(Cl)ccc4Cl)o3)SC2=S)ccc1O [Compound A41]	11 to 40
O=C(O)c1cc(N2C(=O)C(=Cc3ccc(-c4c(Cl)cccc4Cl)o3)SC2=S)ccc1O [Compound A42]	11 to 40
O=C(O)c1cccc(N2C(=O)C(=Cc3ccc(-c4cc(C(F)(F)F)ccc4Cl)o3)SC2=S)c1 [Compound A44]	< 10

Compound	IC50 [µM]
O=C(O)COc1ccc(N2C(=O)C(=Cc3ccc(-c4ccc(Cl)cc4)o3)SC2=S)cc1 [Compound A45]	11 to 40
CC(C)c1ccc(-c2ccc(C=C3SC(=S)N(c4cccc(C(=O)O)c4)C3=O)o2)cc1 [Compound A46]	< 10
CC(C)c1ccc(-c2ccc(C=C3SC(=S)N(c4ccc(O)c(C(=O)O)c4)C3=O)o2)cc1 [Compound A47]	< 10
O=C(O)c1cccc(N2C(=O)C(=Cc3ccc(-c4ccc(C(=O)c5ccccc5)cc4)o3)SC2=S)c1 [Compound A48]	< 10
O=C1C(=Cc2ccc(-c3ccccc3Cl)o2)SC(=S)N1c1cccc(O)c1 [Compound A49]	11 to 40
O=C1C(=Cc2ccc(-c3cccc(C(F)(F)F)c3)o2)SC(=S)N1c1cccc(O)c1 [Compound A50]	11 to 40
O=C1C(=Cc2ccc(-c3ccc(Cl)cc3)o2)SC(=S)N1c1cccc(O)c1 [Compound A51]	11 to 40
CC(C)c1ccc(-c2ccc(C=C3SC(=S)N(c4cccc(O)c4)C3=O)o2)cc1 [Compound A52]	11 to 40
O=C(O)c1cccc(N2C(=O)C(=Cc3ccc(-c4ccc(CSc5ccccc5)cc4)o3)SC2=S)c1 [Compound A53]	11 to 40
CC(C)c1cccc(-c2ccc(C=C3SC(=S)N(c4cccc(C(=O)O)c4)C3=O)o2)c1 [Compound A54]	< 10
CC(C)c1cccc(-c2ccc(C=C3SC(=S)N(c4cccc(O)c4)C3=O)o2)c1 [Compound A55]	11 to 40
O=C(O)c1cccc(N2C(=O)C(=Cc3ccc(-c4ccc(C5CCCCC5)cc4)o3)SC2=S)c1 [Compound A56]	< 10
O=C(O)c1cc(N2C(=O)C(=Cc3ccc(-c4ccc(C5CCCCC5)cc4)o3)SC2=S)ccc1O [Compound A57]	< 10
CC(C)(C)c1ccc(-c2ccc(C=C3SC(=S)N(c4cccc(C(=O)O)c4)C3=O)o2)cc1 [Compound A58]	< 10
CC(C)(C)c1ccc(-c2ccc(C=C3SC(=S)N(c4ccc(O)c(C(=O)O)c4)C3=O)o2)cc1 [Compound A59]	< 10
O=C(O)COc1cccc(N2C(=O)C(=Cc3ccc(-c4ccc(Cl)cc4)o3)SC2=S)c1 [Compound A60]	11 to 40
CC(C)c1cccc(-c2ccc(C=C3SC(=S)N(c4ccc(O)c(C(=O)O)c4)C3=O)o2)c1 [Compound A61]	< 10
O=C(O)c1cc(N2C(=O)C(=Cc3ccc(-c4ccc(CSc5ccccc5)cc4)o3)SC2=S)ccc1O [Compound A62]	11 to 40
CC(C)c1cccc(-c2ccc(C=C3SC(=S)N(c4cccc(OCC(=O)O)c4)C3=O)o2)c1 [Compound A63]	< 10
CC(C)Cc1ccc(-c2ccc(C=C3SC(=S)N(c4cccc(C(=O)O)c4)C3=O)o2)cc1 [Compound A64]	< 10

Same assay, conditions: read-out: Dlat IC50 category

Compound	IC50 [µM]
2-{5-[2-(2-Chloro-benzyloxy)-benzylidene]-4-oxo-2-thioxo-thiazolidin-3-ylamino}-benzoic acid [Compound D32]	< 10
